target: human PDE10 (Homo sapiens (Human), UniProt Q9Y233); test: Evaluation of enzyme inhibitory activity: human PDE10 inhibitory effect (IMAP TR-FRET); format: biochemical; details: cAMP substrate
Experimental: (Evaluation of Enzyme Inhibitory Activity: Human PDE10 Inhibitory Effect)
IMAP TR-FRET Phosphodiersterase Evaluation Assay Kit (Molecular Device) was used for the measurement. Ten μL of a diluted test compound having each concentration and 5 μL of the enzyme PDE10 (BPA Bioscience) that had been diluted to 2 ng/mL with 1×IMAP Reaction Buffer (prepared with 5×included with the kit, 10 mM Tris-HCl, pH=7.2, 10 mM MgCl2, 0.05% NaN3, and 0.1% BSA) containing 0.1% BSA were added to a 384-well plate (Corning). The obtained mixture was then pre-incubated at room temperature for 5 minutes. Thereafter, 5 μL of cAMP substrate solution which was included with the kit and diluted to 400 nM with 1×IMAP Reaction Buffer containing 0.1% BSA, was added to the reaction solution, and the obtained mixture was reacted at room temperature for 60 minutes. Thereafter, 60 μL of an IMAP TR-FRET Binding solution included with the kit was further added to the reaction solution, and the obtained mixture was then left for 3 hours or more. Subsequently, using ARVO SX (PerkinElmer), the fluorescent intensity of Terbium (Emission=490 nm) and TR-FRET (Emission=520 nm) in the reaction solution were measured at an excitation wavelength of 340 nm, so as to calculate the amount of the generated 5′-AMP. The count of a well to which a solvent had been added instead of the test compound was set at 0%, and the count of a well to which the enzyme PDE10 had not been added was set at 100%. Thus, the inhibitory activity of each test compound was calculated.
The PDE10 inhibitory activity of the test compound was indicated with an IC50 value. […] The test compounds are shown in Table 3 (Table 3-1 and Table 3-2).

Sequence of human PDE10 (Q9Y233 whole entry): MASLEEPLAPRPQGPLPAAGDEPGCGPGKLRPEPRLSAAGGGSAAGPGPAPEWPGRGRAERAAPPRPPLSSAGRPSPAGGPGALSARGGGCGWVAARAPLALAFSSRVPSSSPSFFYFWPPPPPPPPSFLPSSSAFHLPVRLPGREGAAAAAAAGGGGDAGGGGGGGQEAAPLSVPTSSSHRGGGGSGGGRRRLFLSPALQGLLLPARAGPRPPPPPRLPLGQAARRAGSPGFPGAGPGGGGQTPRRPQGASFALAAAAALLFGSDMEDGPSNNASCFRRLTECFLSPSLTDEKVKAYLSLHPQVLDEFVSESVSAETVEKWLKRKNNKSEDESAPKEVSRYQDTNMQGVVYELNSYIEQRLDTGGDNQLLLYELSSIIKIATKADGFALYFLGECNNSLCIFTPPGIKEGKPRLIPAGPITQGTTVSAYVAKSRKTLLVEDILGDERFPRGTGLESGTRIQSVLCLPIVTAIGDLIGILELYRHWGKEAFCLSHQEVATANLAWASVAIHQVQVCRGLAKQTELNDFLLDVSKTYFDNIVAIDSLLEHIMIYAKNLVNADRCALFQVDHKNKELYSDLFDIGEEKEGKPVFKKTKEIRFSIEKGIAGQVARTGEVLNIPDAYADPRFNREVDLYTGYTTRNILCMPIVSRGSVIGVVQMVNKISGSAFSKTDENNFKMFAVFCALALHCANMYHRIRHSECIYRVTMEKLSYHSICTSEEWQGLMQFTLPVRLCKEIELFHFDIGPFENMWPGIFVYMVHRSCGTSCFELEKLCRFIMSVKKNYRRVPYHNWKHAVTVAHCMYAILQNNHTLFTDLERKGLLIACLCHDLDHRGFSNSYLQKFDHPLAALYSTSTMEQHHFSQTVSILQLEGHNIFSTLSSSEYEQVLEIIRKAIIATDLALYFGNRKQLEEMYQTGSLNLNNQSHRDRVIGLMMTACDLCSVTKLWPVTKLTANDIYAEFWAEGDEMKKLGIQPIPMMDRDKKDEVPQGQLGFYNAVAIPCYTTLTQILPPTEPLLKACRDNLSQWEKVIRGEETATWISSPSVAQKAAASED

IC50 [nM] | Compound
< 5 | Cn1ncc(-c2ccc(F)cn2)c1C(=O)Nc1cc2nc(-c3ccccc3)nn2cc1F [Example 3.8, N-(6-fluoro-2-phenyl-[1,2,4]triazolo[1,5-a]pyridin-7-yl)-4-(5-fluoropyridin-2-yl)-1-methyl-1H-pyrazole-5-carboxamide]
< 5 | Cc1nccnc1-c1cnn(C)c1C(=O)Nc1cc2nc(-c3ccccc3)nn2cc1F [Example 3.32, N-(6-fluoro-2-phenyl-[1,2,4]triazolo[1,5-a]pyridin-7-yl)-1-methyl-4-(3-methylpyrazin-2-yl)-1H-pyrazole-5-carboxamide]
< 5 | Cn1ncc(-c2nc(C(F)(F)F)cs2)c1C(=O)Nc1ccn2nc(N3CC[C@@H](F)C3)nc2c1 [Example 4.13, (R)-N-(2-(3-fluoropyrrolidin-1-yl)-[1,2,4]triazolo[1,5-a]pyridin-7-yl)-1-methyl-4-(4-(trifluoromethyl)thiazol-2-yl)-1H-pyrazole-5-carboxamide]
< 5 | Cc1ccnc(-c2cnn(C)c2C(=O)Nc2ccn3nc(N4CCC[C@@H]4C)nc3c2)c1 [Example 4.4, (S)-1-methyl-4-(4-methylpyridin-2-yl)-N-(2-(2-methylpyrrolidin-1-yl)-[1,2,4]triazolo[1,5-a]pyridin-7-yl)-1H-pyrazole-5-carboxamide]
< 5 | COc1ccnc(-c2cnn(C)c2C(=O)Nc2ccn3nc(N4CCCC4)nc3c2)c1 [Example 4.28, 4-(4-methoxypyridin-2-yl)-1-methyl-N-(2-(pyrrolidin-1-yl)-[1,2,4]triazolo[1,5-a]pyridin-7-yl)-1H-pyrazole-5-carboxamide]
< 5 | Cn1ncc(-c2nc(C(F)(F)F)cs2)c1C(=O)Nc1cc2nc(-c3ccccc3)nn2cc1F [Example 3.6, N-(6-fluoro-2-phenyl-[1,2,4]triazolo[1,5-a]pyridin-7-yl)-1-methyl-4-(4-(trifluoromethyl)thiazol-2-yl)-1H-pyrazole-5-carboxamide]
< 5 | Cc1cc(C)nc(-c2cnn(C)c2C(=O)Nc2ccn3nc(N4CCC[C@@H]4C)nc3c2)c1 [Example 4.8, (S)-4-(4,6-dimethylpyridin-2-yl)-1-methyl-N-(2-(2-methylpyrrolidin-1-yl)-[1,2,4]triazolo[1,5-a]pyridin-7-yl)-1H-pyrazole-5-carboxamide]
< 5 | Cc1ccc(-c2cnn(C)c2C(=O)Nc2cc3nc(-c4ccccc4)nn3cc2F)nc1 [Example 3.51, N-(6-fluoro-2-phenyl-[1,2,4]triazolo[1,5-a]pyridin-7-yl)-1-methyl-4-(5-methylpyridin-2-yl)-1H-pyrazole-5-carboxamide]
< 5 | Cc1nccc(-c2cnn(C)c2C(=O)Nc2cc3nc(-c4ccccc4)nn3cc2F)n1 [Example 3.25, N-(6-fluoro-2-phenyl-[1,2,4]triazolo[1,5-a]pyridin-7-yl)-1-methyl-4-(2-methylpyrimidin-4-yl)-1H-pyrazole-5-carboxamide]
< 5 | Cn1ncc(-c2nc(C(F)(F)F)cs2)c1C(=O)Nc1ccn2cc(-c3ccccc3)nc2c1 [Example 1.5, 1-methyl-N-(2-phenylimidazo[1,2-a]pyridin-7-yl)-4-(4-(trifluoromethyl)thiazol-2-yl)-1H-pyrazole-5-carboxamide]
< 5 | Cn1ncc(-c2ncccc2C#N)c1C(=O)Nc1cc2nc(-c3ccccc3)nn2cc1F [Example 3.13, 4-(3-cyanopyridin-2-yl)-N-(6-fluoro-2-phenyl-[1,2,4]triazolo[1,5-a]pyridin-7-yl)-1-methyl-1H-pyrazole-5-carboxamide]
< 5 | Cc1cncc(-c2cnn(C)c2C(=O)NC2CCn3cc(-c4ccccc4)nc3C2)n1 (stereo not shown) [Example 2.13, 1-methyl-4-(6-methylpyrazin-2-yl)-N-(2-phenyl-5,6,7,8-tetrahydroimidazo[1,2-a]pyridin-7-yl)-1H-pyrazole-5-carboxamide]
< 5 | Cn1ncc(-c2nc(C(F)F)cs2)c1C(=O)NC1CCn2cc(-c3ccccc3)nc2C1 (stereo not shown) [Example 2.4, 4-(4-(difluoromethyl)thiazol-2-yl)-1-methyl-N-(2-phenyl-5,6,7,8-tetrahydroimidazo[1,2-a]pyridin-7-yl)-1H-pyrazole-5-carboxamide]
< 5 | Cc1ccnc(-c2cnn(C)c2C(=O)NC2CCn3cc(-c4ccccc4)nc3C2)c1 (stereo not shown) [Example 2.22, 1-methyl-4-(4-methylpyridin-2-yl)-N-(2-phenyl-5,6,7,8-tetrahydroimidazo[1,2-a]pyridin-7-yl)-1H-pyrazole-5-carboxamide]
< 5 | Cc1ncnc(-c2cnn(C)c2C(=O)Nc2cc3nc(-c4ccccc4)nn3cc2F)c1C [Example 3.35, 4-(5,6-dimethylpyrimidin-4-yl)-N-(6-fluoro-2-phenyl-[1,2,4]triazolo[1,5-a]pyridin-7-yl)-1-methyl-1H-pyrazole-5-carboxamide]
< 5 | Cc1ccc(-c2cnn(C)c2C(=O)Nc2ccn3cc(-c4ccccc4)nc3c2)nc1 [Example 1.1, 1-methyl-4-(5-methylpyridin-2-yl)-N-(2-phenylimidazo[1,2-a]pyridin-7-yl)-1H-pyrazole-5-carboxamide]
< 5 | COc1nccc(-c2cnn(C)c2C(=O)Nc2cc3nc(-c4ccccc4)nn3cc2F)n1 [Example 3.26, N-(6-fluoro-2-phenyl-[1,2,4]triazolo[1,5-a]pyridin-7-yl)-4-(2-methoxypyrimidin-4-yl)-1-methyl-1H-pyrazole-5-carboxamide]
< 5 | Cc1cnnc(-c2cnn(C)c2C(=O)Nc2cc3nc(-c4ccccc4)nn3cc2F)c1 [Example 3.46, N-(6-fluoro-2-phenyl-[1,2,4]triazolo[1,5-a]pyridin-7-yl)-1-methyl-4-(5-methylpyridazin-3-yl)-1H-pyrazole-5-carboxamide]
< 5 | Cc1sc(-c2cnn(C)c2C(=O)Nc2ccn3nc(N4CC[C@H](F)C4)nc3c2)nc1C(F)F [Example 4.23, (S)-4-(4-(difluoromethyl)-5-methylthiazol-2-yl)-N-(2-(3-fluoropyrrolidin-1-yl)-[1,2,4]triazolo[1,5-a]pyridin-7-yl)-1-methyl-1H-pyrazole-5-carboxamide]
< 5 | Cc1ncc(C)c(-c2cnn(C)c2C(=O)Nc2cc3nc(N4CCCC4)nn3cc2F)n1 [Example 4.35, 4-(2,5-dimethylpyrimidin-4-yl)-N-(6-fluoro-2-(pyrrolidin-1-yl)-[1,2,4]triazolo[1,5-a]pyridin-7-yl)-1-methyl-1H-pyrazole-5-carboxamide]
< 5 | Cn1ncc(-c2nc(C(F)F)cs2)c1C(=O)Nc1ccn2nc(-c3cccc(F)c3)nc2c1 [Example 3.17, 4-(4-(difluoromethyl)thiazol-2-yl)-N-(2-(3-fluorophenyl)-[1,2,4]triazolo[1,5-a]pyridin-7-yl)-1-methyl-1H-pyrazole-5-carboxamide]
< 5 | Cc1ncc(C)c(-c2cnn(C)c2C(=O)Nc2cc3nc(-c4ccccc4)nn3cc2F)n1 [Example 3.22, 4-(2,5-dimethylpyrimidin-4-yl)-N-(6-fluoro-2-phenyl-[1,2,4]triazolo[1,5-a]pyridin-7-yl)-1-methyl-1H-pyrazole-5-carboxamide]
< 5 | Cn1ncc(-c2nc(C(F)F)c(Cl)s2)c1C(=O)Nc1ccn2cc(-c3ccccc3)nc2c1 [Example 1.7, 4-(5-chloro-4-(difluoromethyl)thiazol-2-yl)-1-methyl-N-(2-phenylimidazo[1,2-a]pyridin-7-yl)-1H-pyrazole-5-carboxamide]
< 5 | Cn1ncc(-c2ncncc2Cl)c1C(=O)Nc1cc2nc(-c3ccccc3)nn2cc1F [Example 3.29, 4-(5-chloropyrimidin-4-yl)-N-(6-fluoro-2-phenyl-[1,2,4]triazolo[1,5-a]pyridin-7-yl)-1-methyl-1H-pyrazole-5-carboxamide]
< 5 | Cn1ncc(-c2nc(C(F)(F)F)cs2)c1C(=O)NC1CCn2c(nc(-c3ccccc3)c2F)C1 (stereo not shown) [Example 2.19, N-(3-fluoro-2-phenyl-5,6,7,8-tetrahydroimidazo[1,2-a]pyridin-7-yl)-1-methyl-4-(4-(trifluoromethyl)thiazol-2-yl)-1H-pyrazole-5-carboxamide]
< 5 | Cn1ncc(-c2nc(C(F)(F)F)cs2)c1C(=O)NC1CCn2cc(-c3ccccc3)nc2C1 (stereo not shown) [Example 2.3, 1-methyl-N-(2-phenyl-5,6,7,8-tetrahydroimidazo[1,2-a]pyridin-7-yl)-4-(4-(trifluoromethyl)thiazol-2-yl)-1H-pyrazole-5-carboxamide]
< 5 | Cc1ccc(-c2cnn(C)c2C(=O)Nc2cc3nc(-c4ccccc4)nn3cc2F)nn1 [Example 3.45, N-(6-fluoro-2-phenyl-[1,2,4]triazolo[1,5-a]pyridin-7-yl)-1-methyl-4-(6-methylpyridazin-3-yl)-1H-pyrazole-5-carboxamide]
< 5 | Cn1ncc(-c2nc(C(F)F)cs2)c1C(=O)Nc1ccn2nc(N3CC[C@H](F)C3)nc2c1 [Example 4.15, (S)-4-(4-(difluoromethyl)thiazol-2-yl)-N-(2-(3-fluoropyrrolidin-1-yl)-[1,2,4]triazolo[1,5-a]pyridin-7-yl)-1-methyl-1H-pyrazole-5-carboxamide]

— patent US9777000B2, “Pyrazole derivative” (MOCHIDA PHARMACEUTICAL CO., LTD., priority 2013, dated 2017)
